In US6156700A, “3-(1,2-Benzisothiazol- and isoxazol-5-yl)-2,4(1H,3H)-pyrimidinedione or thione and 3-(1,2-benzisothiazol- and isoxazol-5-yl)-4(3H)-pyrimidinone or thione herbicidal agents” (American Cyanmid Company, priority 1998, dated 2000):

Experiments:
Conditions in all cases: 0.0630 kg/ha
Galium, Galium aparine = assay: Postemergence herbicidal evaluation, GALAP; type: in vivo
Experimental: (§1) In the tests, seedling plants are grown in jiffy flats for about two weeks. The test compounds are dispersed in 50/50 acetone/water mixtures containing 0.5% TWEEN®20, a polyoxyethylene sorbitan monolaurate surfactant of Atlas Chemical Industries, in sufficient quantities to provide the equivalent of about 0.0157 kg to 0.500 kg per hectare of active compound when applied to the plants through a spray nozzle operating at 40 psi for a predetermined time. After spraying, the plants are placed on greenhouse benches and are cared for in accordance with conventional greenhouse procedures. From four to five weeks after treatment, the seedling plants are examined and rated according to the rating system set forth below. Where more than one test is involved for a given compound, the data are averaged.
(§2) Results of herbicide evaluation are expressed on a rating scale (0-9). The scale is based upon a visual observation of plant stand, vigor, malformation, size, chlorosis and overall plant appearance as compared with a control.

[1] = system: Velvetleaf, Abutilon theophrasti; assay: Postemergence herbicidal evaluation, ABUTH; type: in vivo, Medic.
Experimental: as §1, §2

[2] = system: Wheat, Winter, cv Riband, Triticum aestivum; assay: Postemergence herbicidal evaluation, TRZAWR; type: in vivo
Experimental: as §1, §2

[3] = system: Foxtail, Green, Setaria viridis; assay: Postemergence herbicidal evaluation, SETVI; type: in vivo, (L.) Beau
Experimental: as §1, §2

[4] = system: Soybean, Williams, Glycine max; assay: Postemergence herbicidal evaluation, GLXMAW; type: in vivo, (L.) Merr. cv Williams
Experimental: as §1, §2

[5] = system: Lambsquarters, Common, Chenopodium album; assay: Postemergence herbicidal evaluation, CHEAL; type: in vivo, L.
Experimental: as §1, §2

Corn, Field, Zea mays = assay: Postemergence herbicidal evaluation, ZEAMX; type: in vivo, L.
Experimental: as §1, §2

[6] = system: Sicklepod, Cassia obtusifolia; assay: Postemergence herbicidal evaluation, CASOB; type: in vivo, L.
Experimental: as §1, §2

[7] = system: Rice, Tebonnet, Oryza sativa; assay: Postemergence herbicidal evaluation, ORYSAT; type: in vivo, (L.) Tebonnet
Experimental: as §1, §2

[8] = system: Ragweed, Common, Ambrosia artemisifolia; assay: Postemergence herbicidal evaluation, AMBEL; type: in vivo, L.
Experimental: as §1, §2

[9] = system: Barnyardgrass, Echinochloa crus-galli; assay: Postemergence herbicidal evaluation, ECHCG; type: in vivo, (L.) Beau
Experimental: as §1, §2

[10] = system: Morningglory, Ivyleaf, Ipomoea hederacea; assay: Postemergence herbicidal evaluation, IPOHE; type: in vivo, (L.) Jacq.
Experimental: as §1, §2

Compound | herbicide rating (0-9) (Galium, Galium aparine) | herbicide rating (0-9) [1] | herbicide rating (0-9) [2] | herbicide rating (0-9) [3] | herbicide rating (0-9) [4] | herbicide rating (0-9) [5] | herbicide rating (0-9) (Corn, Field, Zea mays) | herbicide rating (0-9) [6] | herbicide rating (0-9) [7] | herbicide rating (0-9) [8] | herbicide rating (0-9) [9] | herbicide rating (0-9) [10]
Cc1ccc(OC(C)C(=O)OCCCl)c(-c2nsc3ccc(-n4c(=O)cc(C(F)(F)F)n(C)c4=O)cc23)c1 (stereo not drawn) [Compound 81, 2-Chloroethyl 2-{{2-{5-[3,6-dihydro-3-methyl-2,6-dioxo-4-(trifluoromethyl)-1(2H)-pyrimidinyl]-1,2-benzisothiazol-3-yl}-p-tolyl}oxy}propionate] | 9.0 | 9.0 | 8.5 | 9.0 | 7.0 | 9.0 | 8.0 | 3.0 | 8.0 | 9.0 | 9.0 | 9.0
C=CCOC(=O)COc1ccc(C)cc1-c1nsc2ccc(-n3c(=O)cc(C(F)(F)F)n(C)c3=O)cc12 [Compound 69, Allyl {{2-{5-[3,6-dihydro-3-methyl-2,6-dioxo-4-(trifluoromethyl)-1(2H)-pyrimidinyl]-1,2-benzisothiazol-3-yl}-p-tolyl}oxy}acetate] | 9.0 | 9.0 | 8.0 | 9.0 | 9.0 | 9.0 | 8.5 | 9.0 | 8.0 | 9.0 | 9.0 | 9.0
COC(=O)C(C)Oc1ccc(C)cc1-c1nsc2ccc(-n3c(=S)cc(C(F)(F)F)n(C)c3=O)cc12 (stereo not drawn) [Compound 33, Methyl 2-{{2-{5-[3,6-dihydro-3-methyl-2-oxo-6-thioxo-4-(trifluoromethyl)-1(2H)-pyrimidinyl]-1,2-benzisothiazol-3-yl}-p-tolyl}oxy}propionate] | 9.0 | 9.0 | 8.5 | 9.0 | 6.0 | 9.0 | 8.5 | 8.0 | 7.5 | 9.0 | 9.0 | 9.0
CC#CCOC(=O)C(C)Oc1ccc(C)cc1-c1nsc2ccc(-n3c(=O)cc(C(F)(F)F)n(C)c3=O)cc12 (stereo not drawn) [Compound 80, 2-Butynyl 2-{{2-{5-[3,6-dihydro-3-methyl-2,6-dioxo-4-(trifluoromethyl)-1(2H)-pyrimidinyl]-1,2-benzisothiazol-3-yl}-p-tolyl}oxy}propionate] | 9.0 | 9.0 | 8.0 | 9.0 | 7.5 | 9.0 | 7.5 | 7.0 | 7.5 | 9.0 | 9.0 | 9.0
CC(=O)OCc1nsc2ccc(-n3c(=O)cc(C(F)(F)F)n(C)c3=O)cc12 [Compound 32, 3-[3-(Hydroxymethyl)-1,2-benzisothiazol-5-yl]-1-methyl-6-(trifluoromethyl)-2,4(1H,3H)-pyrimidinedione,acetate ester] | 7.0 | 9.0 | 2.0 | 5.0 | 5.5 | 9.0 | 5.5 | 4.0 | 1.0 | 9.0 | 2.0 | 9.0
COc1cc(C)c(C)c(C)c1-c1nsc2ccc(-n3c(=O)cc(C(F)(F)F)n(C)c3=O)cc12 [Compound 34, 3-[3-(6-Methoxy-2,3,4-trimethylphenyl)-1,2-benzisothiazol-5-yl]-1-methyl-6-(trifluoromethyl)-2,4(1H,3H)-pyrimidinedione] | 0.0 | 0.0 | 0.0 | 7.0 | 3.0 | 4.0 | 4.0 | 0.0 | 0.0 | 1.0 | 1.0 | 0.0
Cc1ccc(OCC(=O)OCCN(C)C)c(-c2nsc3ccc(-n4c(=O)cc(C(F)(F)F)n(C)c4=O)cc23)c1 [Compound 70, 2-(Dimethylamino)ethyl {{2-[5-[3,6-dihydro-3-methyl-2,6-dioxo-4-(trifluoromethyl)-1(2H)-pyrimidinyl]-1,2-benzisothiazol-3-yl}-p-tolyl}oxy}acetate] | 5.0 | 9.0 | 5.0 | 9.0 | 8.0 | 9.0 | 6.0 | 9.0 | 3.0 | 9.0 | 9.0 | 9.0
Cn1c(C(F)(F)F)cc(=O)n(-c2ccc3snc(Br)c3c2)c1=O [Compound 36, 3-(3-Bromo-1,2-benzisothiazol-5-yl)-1-methyl-6-(trifluoromethyl)-2,4(1H,3H)-pyrimidinedione] | 0.0 | 0.0 | 0.5 | 9.0 | 0.0 | 0.0 | 1.5 | 0.0 | 0.5 | 0.0 | 1.0 | 1.0
CCC(CC)OC(=O)COc1ccc(C)cc1-c1nsc2ccc(-n3c(=O)cc(C(F)(F)F)n(C)c3=O)cc12 [Compound 83, 1-Ethylpropyl {{2-{5-[3,6-dihydro-3-methyl-2,6-dioxo-4-(trifluoromethyl)-1(2H)-pyrimidinyl)-1,2-benzisothiazol-3-yl}-p-tolyl}oxy}acetate] | 7.0 | 9.0 | 6.5 | 9.0 | 8.0 | 9.0 | 6.0 | 3.0 | 7.5 | 9.0 | 9.0 | 9.0
Cc1ccc(OC(C)C(=O)OC(C)C)c(-c2nsc3ccc(-n4c(=O)cc(C(F)(F)F)n(C)c4=O)cc23)c1 (stereo not drawn) [Compound 82, Isopropyl 2-{{2-{5-[3,6-dihydro-3-methyl-2,6-dioxo-4-(trifluoromethyl)-1(2H)-pyrimidinyl)-1,2-benzisothiazol-3-yl}-p-tolyl}oxy}propionate] | 4.0 | 9.0 | 6.0 | 9.0 | 5.5 | 9.0 | 5.5 | 1.0 | 5.5 | 6.0 | 7.0 | 9.0
Cc1ccc(OCC(=O)n2cnc3ccccc32)c(-c2nsc3ccc(-n4c(=O)cc(C(F)(F)F)n(C)c4=O)cc23)c1 [Compound 62] | 6.0 | 9.0 | 5.5 | 9.0 | 9.0 | 9.0 | 7.0 | 7.0 | 5.5 | 9.0 | 9.0 | 9.0
Cc1ccc(OCC(=O)OCCCl)c(-c2nsc3ccc(-n4c(=O)cc(C(F)(F)F)n(C)c4=O)cc23)c1 [Compound 71, 2-Chloroethyl {{2-{5-[3,6-dihydro-3-methyl-2,6-dioxo-4-(trifluoromethyl)-1(2H)-pyrimidinyl]-1,2-benzisothiazol-3-yl}-p-tolyl}oxy}acetate] | 9.0 | 9.0 | 9.0 | 9.0 | 9.0 | 9.0 | 8.5 | 9.0 | 8.0 | 9.0 | 9.0 | 9.0
